# Laboratory results reported in patent US7799800B2, “Lipid-modified immune response modifiers” (3M Innovative Properties Company, priority 2003, dated 2010).
row,melting point,Structure (SMILES)
1,80 to 83 °C,"CCCCCCCCCCCCCCCCCC(=O)NCCOCCn1c(CCOC)nc2c(N)nc3ccccc3c21 [Example 2, N-(2-{2-[4-amino-2-(2-methoxyethyl)-1H-imidazo[4,5-c]quinolin-1-yl]ethoxy}ethyl)octadecanamide]"
2,80 to 83 °C,"CCCCCCCCCCCC(=O)NCCOCCn1c(CCOC)nc2c(N)nc3ccccc3c21 [Example 3, N-(2-{2-[4-amino-2-(2-methoxyethyl)-1H-imidazo[4,5-c]quinolin-1-yl]ethoxy}ethyl)dodecanamide]"
3,85 to 87 °C,"CCCCCCCCCCCCCC(=O)NCCOCCn1c(CCOC)nc2c(N)nc3ccccc3c21 [Example 4, N-(2-{2-[4-amino-2-(2-methoxyethyl)-1H-imidazo[4,5-c]quinolin-1-yl]ethoxy}ethyl)tetradecanamide]"
